Measured values taken from patent publication US6590093B1, “Orthoester protecting groups” (Dharmacon, Inc., priority 1998, dated 2003).

Assays:
[1] = acid lability (half life) of the 2′-orthoester protecting group on uridine; details: pH 2, 25° C.; after ester hydrolysis of the ACE orthoester
[2] = buffer, pH 2

Question: Which “times more labile (than 2′-ACE-uridine)” value [1] does the source give for `O=c1ccn(C2OC(CO)C(O)C2OC(OCCO)OCCO)c(=O)[nH]1` (centres unmarked) [2′-modified uridine] here?
Answer: The value was 10 times.

Question: And the half life [2]?
Answer: Its half life is under 45 s.
